Experimental data taken from the supplement of paper PMC10307832.

Experiments:
Experiment in all cases: relative viability (nuclei count vs DMSO), 5 days (fraction); higher = more cells survive
[1] = compound: C1=CC=C(C(=C1)C2=CC=C(C=C2)C3=CSC4=C3C(=C(C(=O)N4)C#N)O)O + CS(=O)(=O)N1CCN(Cc2cc3nc(-c4cccc5[nH]ncc45)nc(N4CCOCC4)c3s2)CC1 [Pictilisib] (partner 1 µM)
Outline: (§1)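 Relative viability equals treated-well nuclei counts divided by vehicle-well nuclei counts. Counts came from 4× images of lung cancer cell lines grown in 1536-well plates for 5 days after pin-tool dosing on the day after seeding. Dosing used one drug alone or a fixed anchor-drug dose plus five library-drug doses (not always all listed) in √10 steps, and values are medians of duplicate plates.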

TGX 221 + Lapatinib = compound: CC1=CN2C(=O)C=C(N=C2C(=C1)C(C)NC3=CC=CC=C3)N4CCOCC4 [TGX 221] + CS(=O)(=O)CCNCc1ccc(-c2ccc3ncnc(Nc4ccc(OCc5cccc(F)c5)c(Cl)c4)c3c2)o1 [Lapatinib] (partner 2 µM)
Outline: as §1

[2] = compound: O=C(CCCCCCNC(=O)c1cnc(N(c2ccccc2)c2ccccc2)nc1)NO [Ricolinostat] + CC1(C)CCC(c2ccc(Cl)cc2)=C(CN2CCN(c3ccc(C(=O)NS(=O)(=O)c4ccc(N[C@H](CCN5CCOCC5)CSc5ccccc5)c(S(=O)(=O)C(F)(F)F)c4)cc3)CC2)C1 [Navitoclax] (partner 0.5 µM)
Outline: as §1

[3] = compound: O=C(CCCCCCNC(=O)c1cnc(N(c2ccccc2)c2ccccc2)nc1)NO [Ricolinostat] + C[C@]1(O)C[C@@H](c2nc(-c3ccc4ccc(-c5ccccc5)nc4c3)c3c(N)nccn32)C1 [Linsitinib] (partner 1 µM)
Outline: as §1

Cell Line	relative viability ([1]; first compound 0.08 µM)	relative viability ([1]; first compound 0.253 µM)	relative viability ([1]; first compound 0.8 µM)	relative viability ([1]; first compound 2.53 µM)	relative viability ([1]; first compound 8 µM)	relative viability (TGX 221 + Lapatinib; first compound 0.253 µM)	relative viability (TGX 221 + Lapatinib; first compound 0.8 µM)	relative viability (TGX 221 + Lapatinib; first compound 2.53 µM)	relative viability (TGX 221 + Lapatinib; first compound 8 µM)	relative viability ([2]; first compound 0.08 µM)	relative viability ([2]; first compound 0.253 µM)	relative viability ([2]; first compound 0.8 µM)	relative viability ([2]; first compound 2.53 µM)	relative viability ([3]; first compound 0.08 µM)	relative viability ([3]; first compound 0.253 µM)	relative viability ([3]; first compound 0.8 µM)	relative viability ([3]; first compound 2.53 µM)	relative viability (TGX 221 + Lapatinib; first compound 0.08 µM)
201T	0.646	0.697	0.652	0.584	0.846	1.05	0.98	1.02	0.943	1.21	1.16	1.23	1.24	0.915	0.964	0.986	0.904	–
A549	0.322	0.552	0.539	0.516	0.422	0.914	0.966	1.04	0.748	1.07	1.18	1.1	1.21	–	0.533	0.538	0.562	0.939
A-427	0.577	0.751	0.683	0.75	0.886	0.992	1.01	0.991	1.05	0.861	0.906	0.89	0.754	0.958	1.07	1.01	0.875	0.998
ABC-1	0.678	0.881	0.949	0.59	0.548	1.14	1.12	1.24	1.09	–	–	–	–	0.616	0.772	0.944	0.669	0.987
BEN	0.547	0.597	0.437	0.547	0.428	0.719	0.506	0.68	0.605	0.0553	0.084	0.0569	0.0652	0.795	0.751	0.953	0.592	0.721
CAL-12T	–	0.446	0.359	0.337	0.367	0.533	0.576	–	0.621	1.04	1.01	1.01	1.11	0.55	0.69	0.835	0.859	–
COR-L23	0.757	0.581	0.813	0.728	0.575	0.923	1.02	1.11	0.938	0.943	1.07	0.978	0.511	0.726	0.854	0.897	0.543	0.886
COR-L 105	0.387	0.525	0.428	0.417	0.433	0.333	0.394	0.394	0.325	0.688	0.833	0.828	0.722	0.761	0.92	1.1	1.11	0.409
Calu-6	0.959	0.967	1.05	0.988	0.812	0.916	1.04	1.17	0.962	0.801	0.852	0.803	0.783	0.817	0.89	0.891	0.766	0.929
ChaGo-K-1	0.387	0.634	0.554	0.747	0.829	–	–	–	–	1.11	1.11	0.888	0.953	–	–	–	–	–
EBC-1	0.353	0.429	0.346	0.343	0.368	0.212	0.203	0.226	0.234	0.375	0.358	0.304	0.172	0.737	0.713	0.911	0.328	0.203
EKVX	0.457	0.482	0.376	0.425	0.367	0.194	0.213	0.182	0.19	–	0.805	0.842	1.02	–	1.01	0.921	1.15	0.231
EMC-BAC-2	0.526	0.516	0.562	0.544	0.477	0.83	0.894	0.903	0.874	1.04	1.09	1.2	1.2	0.731	0.78	0.832	0.885	0.841
EPLC-272H	–	0.251	0.264	0.299	0.292	0.881	0.822	–	0.962	–	0.784	0.992	0.631	–	0.894	1.21	0.772	1.04
H3255	0.483	0.514	0.447	0.536	0.467	0.225	0.24	0.277	0.211	0.537	0.495	0.483	0.483	0.78	0.879	0.878	0.854	0.301
HARA	–	0.668	0.449	0.392	0.442	0.722	0.707	0.662	0.766	1.1	1.1	1.09	1.11	0.813	0.902	0.886	0.81	0.788
HCC-15	0.777	0.767	0.734	0.74	0.777	0.8	0.821	0.823	0.861	0.649	0.75	0.767	0.616	0.847	0.866	0.938	0.834	0.842
HCC-44	0.549	0.717	0.601	0.556	0.605	0.982	0.975	0.984	1.05	0.861	1.04	0.985	0.93	0.575	0.682	0.589	0.545	1
HCC-78	0.169	0.286	0.205	0.192	0.196	0.699	–	0.277	0.794	–	0.771	0.561	0.435	–	0.551	0.417	0.271	0.702
